# In ChEMBL document CHEMBL5252601, “Hydroxy-xanthones as promising antiviral agents: Synthesis and biological evaluation against human coronavirus OC43” (Bioorg Med Chem Lett, 2023):
# Tests used:
# [1] = system: Human coronavirus OC43; experiment: Antiviral activity against HCoV-OC43 infected in hamster BHK-21 cells assessed as inhibition of viral infectivity per ml at 10 uM measured after 3 days; type: functional; settings: time 3 day
# [2] = system: BHK-21; experiment: Cytotoxicity against hamster BHK-21 cells assessed as reduction in cell viability at 10 uM measured after 3 days; type: toxicity, cell-based, Mesocricetus auratus; settings: bhk-21, 72 h, time 3 day
Structure (SMILES),log(activity) [1],Activity [2]
O=c1c2ccc(O)cc2oc2cccc(O)c12,2.2,>= 85%
O=c1c2cc(O)c(O)cc2oc2cc(O)c([C@@H]3O[C@H](CO)[C@@H](O)[C@H](O)[C@H]3O)c(O)c12 [MANGIFERIN],3,>= 85%
O=c1c2c(O)cccc2oc2cc(O)cc(O)c12,2,>= 85%
Cc1ccc2oc3cc(O)cc(O)c3c(=O)c2c1,2.79,>= 85%
"O=c1c2ccccc2oc2c(O)c(O)ccc12 [3,4-DIHYDROXYXANTHONE]",1.95,>= 85%
COc1ccc2oc3cc(O)cc(O)c3c(=O)c2c1,2.67,>= 85%
O=C(c1ccccc1O)c1ccc(O)c(O)c1O,1.95,>= 85%
O=c1c2cc(F)ccc2oc2cc(O)cc(O)c12,2.38,>= 85%
O=C(c1ccccc1O)c1ccc(O)cc1O,2.45,>= 85%
O=c1c2ccccc2oc2ccccc12 [XANTHONE],2.04,>= 85%
Cc1ccc2c(=O)c3c(O)cc(O)cc3oc2c1,2.42,>= 85%
COc1ccc2c(=O)c3c(O)cc(O)cc3oc2c1,2.67,>= 85%
O=c1c2ccccc2oc2cc(O)cc(O)c12,2.5,>= 85%
